Measurements: patent US9802927B2, “Oxadiazine compounds and methods of use thereof” (Denali Therapeutics, Inc., priority 2015, dated 2017)

test system: Aβ42; assay: In vitro cell screening assay in H4 cells expressing human APP751: Aβ42 by sandwich ELISA; type: cell-based; conditions: Homo sapiens, compounds 0.003-10 μM, incubated overnight (16-18 h), sandwich ELISA of supernatant
Experimental: Human neuroglioma H4 cells were transfected with a pcDNA3.1 plasmid expressing human wild type APP751 cDNA and a stable cell line was generated using G418 selection. Cells were plated at 15,000 cells/well in Costar 96-well plates and placed at 37° C. and 5% CO2. Six hours after plating, cells were washed three times with Pro293™ chemically defined medium, followed by addition of compounds (0.003-10 μM, final DMSO concentration of 0.33%). Plates were incubated overnight (16-18 h) and supernatant was removed for quantification of Aβ peptides by sandwich ELISA. Cytotoxicity was evaluated using Cell-Titer 96W AQueous One Solution Cell Proliferation Assay according to the manufacturer's protocol.
Aβ peptide levels were quantified by sandwich ELISA. 96-well plates were coated with C-terminal specific Aβ antibodies recognizing either Aβ37, Aβ38, Aβ40, Aβ42, Aβ43 or a N-terminal specific Aβ antibody to detect Aβ 1-x. Plates were then blocked overnight at 4° C. with 1% bovine serum albumin (BSA) in PBS-T. Plates were washed and 100 μl of cultured cell supernatant or synthetic Aβ peptide standards and a detection antibody (4G8-HRP) were applied to the blocked plate and incubated overnight at 4° C. The next day, wells were washed before the addition of detection substrate (TMB peroxidase). Plates were then read for absorbance at 450 nm on a Molecular Devices SpectraMax M5e Microplate Reader.
Compound-treated samples were normalized to samples treated with DMSO alone (no inhibition) and to samples treated with DAPT. EC50 values were calculated from values reported as percent of DMSO controls using nonlinear regression, based on a sigmoidal dose response (variable slope) model. GraphPAD software from Prism used for calculation.

First: COc1nc(C2=NOCC(c3cc4cccc(C)c4o3)N2C)ccc1-n1cnc(C)c1 (single isomer, unassigned; (+)) [Example 23, (+)-3-(6-Methoxy-5-(4-methyl-1H-imidazol-1-yl)pyridin-2-yl)-4-methyl-5-(7-methylbenzofuran-2-yl)-5,6-dihydro-4H-1,2,4-oxadiazine]
Second: COc1nc(C2=NOCC(c3cc4cccc(C)c4o3)N2)ccc1-n1cnc(Cl)c1 (single isomer, unassigned; (+)) [Example 24, (+)-3-(5-(4-Chloro-1H-imidazol-1-yl)-6-methoxypyridin-2-yl)-5-(7-methylbenzofuran-2-yl)-5,6-dihydro-4H-1,2,4-oxadiazine]
The EC50 of the first is 4.5-fold higher: 61.9 nM for the first, 13.7 nM for the second.

`COc1cn(-c2ccc(C3=NOCC(c4cc5cccc(C)c5o4)N3)nc2OC)cn1` (single isomer, unassigned; (+)) [Example 33, (+)-3-(6-methoxy-5-(4-methoxy-1H-imidazol-1-yl)pyridin-2-yl)-5-(7-methylbenzofuran-2-yl)-5,6-dihydro-4H-1,2,4-oxadiazine] showed an EC50 of 147 nM.

same assay, conditions: compounds 0.003-10 μM, incubated overnight (16-18 h), sandwich ELISA of supernatant

Compared with `COc1nc(C2=NOCC(C3CC3)N2)ccc1-n1cnc(C)c1` (single isomer, unassigned) [Example 134A, 5-cyclopropyl-3-(6-methoxy-5-(4-methyl-1H-imidazol-1-yl)pyridin-2-yl)-5,6-dihydro-4H-1,2,4-oxadiazine], `COc1nc(C2=NOCC(C3CCCCC3)N2)ccc1-n1cnc(C)c1` (single isomer, unassigned; (+)) [Example 61B, (+)-5-cyclohexyl-3-(6-methoxy-5-(4-methyl-1H-imidazol-1-yl)pyridin-2-yl)-5,6-dihydro-4H-1,2,4-oxadiazine] is lower in EC50: over 3000 nM for the first, 57.8 nM for the second. The second is the more potent here.

Going from `COc1nc(C2=NOCC(C3CC3)N2)ccc1-n1cnc(C)c1` (single isomer, unassigned) [Example 134B, 5-cyclopropyl-3-(6-methoxy-5-(4-methyl-1H-imidazol-1-yl)pyridin-2-yl)-5,6-dihydro-4H-1,2,4-oxadiazine] to `COc1nc(C2=NOCC(CC3CC3)N2)ccc1-n1cnc(C)c1` (single isomer, unassigned) [Example 159A, 5-(cyclopropylmethyl)-3-(6-methoxy-5-(4-methyl-1H-imidazol-1-yl)pyridin-2-yl)-5,6-dihydro-4H-1,2,4-oxadiazine], the EC50 rises from 1100 nM to over 3000 nM.

First: COc1nc(C2=NOCC(c3ccccc3Cl)N2)ccc1-n1cnc(C)c1 (single isomer, unassigned) [Example 136A, 5-(2-chlorophenyl)-3-(6-methoxy-5-(4-methyl-1H-imidazol-1-yl)pyridin-2-yl)-5,6-dihydro-4H-1,2,4-oxadiazine]
Second: COc1nc(C2=NOCC(c3csc4ccccc34)N2)ccc1-n1cnc(C)c1 (single isomer, unassigned; (+)) [Example 68B, (+)-5-(benzo [b]thiophen-3-yl)-3-(6-methoxy-5-(4-methyl-1H-imidazol-1-yl)pyridin-2-yl)-5,6-dihydro-4H-1,2,4-oxadiazine]
The EC50 of the first is 6.9-fold higher: 143 nM for the first, 20.8 nM for the second. The second is the more potent here.

Compared with `COc1nc(C2=NOCC(c3ccccc3Cl)N2)ccc1-n1cnc(C)c1` (single isomer, unassigned) [Example 136B, 5-(2-chlorophenyl)-3-(6-methoxy-5-(4-methyl-1H-imidazol-1-yl)pyridin-2-yl)-5,6-dihydro-4H-1,2,4-oxadiazine], `COc1nc(C2=NOCC(c3cc4cccc(Cl)c4o3)N2)ccc1-n1cnc(C)c1` (single isomer, unassigned; (+)) [Example 64B, (+)-5-(7-chlorobenzofuran-2-yl)-3-(6-methoxy-5-(4-methyl-1H-imidazol-1-yl)pyridin-2-yl)-5,6-dihydro-4H-1,2,4-oxadiazine] is 64-fold lower in EC50: 775 nM for the first, 12.2 nM for the second.

Going from `COc1nc(C2=NOCC(CC3CC3)N2)ccc1-n1cnc(C)c1` (single isomer, unassigned) [Example 159B, 5-(cyclopropylmethyl)-3-(6-methoxy-5-(4-methyl-1H-imidazol-1-yl)pyridin-2-yl)-5,6-dihydro-4H-1,2,4-oxadiazine] to `COc1nc(C2=NOCC(c3ccc(Cl)c(Cl)c3)N2)ccc1-n1cnc(C)c1` (single isomer, unassigned; (+)) [Example 49B, (+)-5-(3,4-dichlorophenyl)-3-(6-methoxy-5-(4-methyl-1H-imidazol-1-yl)pyridin-2-yl)-5,6-dihydro-4H-1,2,4-oxadiazine], the EC50 falls from 695 nM to 11.4 nM (61-fold). The second is the more potent here.

Compared with `COc1nc(C2=NOCC(c3noc4ccccc34)N2)ccc1-n1cnc(C)c1` (single isomer, unassigned) [Example 174A, 3-(3-(6-methoxy-5-(4-methyl-1H-imidazol-1-yl)pyridin-2-yl)-5,6-dihydro-4H-1,2,4-oxadiazin-5-yl) benzo[d]isoxazole], `COc1nc(C2=NOCC(c3sc4ccccc4c3C)N2)ccc1-n1cnc(C)c1` (single isomer, unassigned; (+)) [Example 66B, (+)-3-(6-methoxy-5-(4-methyl-1H-imidazol-1-yl)pyridin-2-yl)-5-(3-methylbenzo [b]thiophen-2-yl)-5,6-dihydro-4H-1,2,4-oxadiazine] is lower in EC50: over 3000 nM for the first, 9.1 nM for the second. The second is the more potent here.

First: COc1nc(C2=NOCC(c3noc4ccccc34)N2)ccc1-n1cnc(C)c1 (single isomer, unassigned) [Example 174B, 3-(3-(6-methoxy-5-(4-methyl-1H-imidazol-1-yl)pyridin-2-yl)-5,6-dihydro-4H-1,2,4-oxadiazin-5-yl) benzo[d]isoxazole]
Second: COc1nc(C2=NOCC(c3cc4ccc(F)cc4o3)N2)ccc1-n1cnc(C)c1 (single isomer, unassigned; (+)) [Example 52B, (+)-5-(6-fluorobenzofuran-2-yl)-3-(6-methoxy-5-(4-methyl-1H-imidazol-1-yl)pyridin-2-yl)-5,6-dihydro-4H-1,2,4-oxadiazine]
The EC50 of the first is 11-fold higher: 281 nM for the first, 24.6 nM for the second. The second is the more potent here.

First: COc1nc(C2=NOCC(c3ccc(Cl)c(C(F)(F)F)c3)N2)ccc1-n1cnc(C)c1 (single isomer, unassigned) [Example 253A, 5-(4-chloro-3-(trifluoromethyl)phenyl)-3-(6-methoxy-5-(4-methyl-1H-imidazol-1-yl)pyridin-2-yl)-5,6-dihydro-4H-1,2,4-oxadiazine]
Second: COc1nc(C2=NOCC(c3ccc(C(F)(F)F)cc3)N2)ccc1-n1cnc(C)c1 (single isomer, unassigned; (+)) [Example 59B, (+)-3-(6-methoxy-5-(4-methyl-1H-imidazol-1-yl)pyridin-2-yl)-5-(4-(trifluoromethyl)phenyl)-5,6-dihydro-4H-1,2,4-oxadiazine]
The EC50 of the first is 19-fold higher: 654 nM for the first, 33.7 nM for the second. The second is the more potent here.

Compared with `COc1nc(C2=NOCC(c3ccc(Cl)c(C(F)(F)F)c3)N2)ccc1-n1cnc(C)c1` (single isomer, unassigned) [Example 253B, 5-(4-chloro-3-(trifluoromethyl)phenyl)-3-(6-methoxy-5-(4-methyl-1H-imidazol-1-yl)pyridin-2-yl)-5,6-dihydro-4H-1,2,4-oxadiazine], `COc1nc(C2=NOCC(c3ccc(F)c(F)c3)N2)ccc1-n1cnc(C)c1` (single isomer, unassigned; (+)) [Example 75B, (+)-5-(3,4-difluorophenyl)-3-(6-methoxy-5-(4-methyl-1H-imidazol-1-yl)pyridin-2-yl)-5,6-dihydro-4H-1,2,4-oxadiazine] is 11-fold higher in EC50: 8.4 nM for the first, 92.2 nM for the second. The first is the more potent here.

Going from `COc1nc(C2=NOCC(c3cc4ccccc4o3)N2)ccc1-n1cnc(C)n1` (single isomer, unassigned; (+)) [Example 31B, (+)-5-(Benzofuran-2-yl)-3-(6-methoxy-5-(3-methyl-1H-1,2,4-triazol-1-yl)pyridin-2-yl)-5,6-dihydro-4H-1,2,4-oxadiazine] to `COc1nc(C2=NOCC(c3cc4cc(Cl)ccc4o3)N2)ccc1-n1cnc(C)c1` (single isomer, unassigned; (+)) [Example 57B, (+)-5-(5-chlorobenzofuran-2-yl)-3-(6-methoxy-5-(4-methyl-1H-imidazol-1-yl)pyridin-2-yl)-5,6-dihydro-4H-1,2,4-oxadiazine], the EC50 falls from 636 nM to 17.8 nM (36-fold).

Compared with `COc1ccc(C2CON=C(c3ccc(-n4cnc(C)c4)c(OC)n3)N2)cc1` (single isomer, unassigned; (+)) [Example 54B, (+)-3-(6-methoxy-5-(4-methyl-1H-imidazol-1-yl)pyridin-2-yl)-5-(4-methoxyphenyl)-5,6-dihydro-4H-1,2,4-oxadiazine], `COc1nc(C2=NOCC(c3ccc(OC(F)(F)F)cc3)N2)ccc1-n1cnc(C)c1` (single isomer, unassigned; (+)) [Example 70B, (+)-3-(6-methoxy-5-(4-methyl-1H-imidazol-1-yl)pyridin-2-yl)-5-(4-(trifluoromethoxy)phenyl)-5,6-dihydro-4H-1,2,4-oxadiazine] is 4.5-fold lower in EC50: 97.4 nM for the first, 21.8 nM for the second.

Work on `CCn1cc(C2CON=C(c3ccc(-n4cnc(C)c4)c(OC)n3)N2)c2cc(Cl)c(F)cc21` (single isomer, unassigned; (+)) [Example 73B, (+)-5-(5-chloro-1-ethyl-6-fluoro-1H-indol-3-yl)-3-(6-methoxy-5-(4-methyl-1H-imidazol-1-yl)pyridin-2-yl)-5,6-dihydro-4H-1,2,4-oxadiazine] yielded an EC50 of 3.9 nM.
